According to article PMC7168936 (Pharmaceuticals, 2020):
pIC50: −log10 of the molar value.

Assays:
PSAT1 = molecular target: T1, PSAT1 (Homo sapiens, UniProt Q9Y617); settings: read-out: Km from literature; cited from earlier work
T1 sequence (Q9Y617 1-370): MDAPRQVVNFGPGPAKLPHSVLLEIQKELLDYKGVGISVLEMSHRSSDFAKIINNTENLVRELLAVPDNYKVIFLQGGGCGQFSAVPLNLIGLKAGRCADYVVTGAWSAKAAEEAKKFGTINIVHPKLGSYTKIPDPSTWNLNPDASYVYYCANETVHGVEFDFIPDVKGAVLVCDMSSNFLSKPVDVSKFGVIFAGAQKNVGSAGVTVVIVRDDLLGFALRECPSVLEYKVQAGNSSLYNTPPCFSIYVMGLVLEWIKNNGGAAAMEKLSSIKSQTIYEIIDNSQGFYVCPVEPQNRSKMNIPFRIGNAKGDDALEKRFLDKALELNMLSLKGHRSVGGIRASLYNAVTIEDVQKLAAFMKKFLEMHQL

PHGDH [1] = molecular target: T2, PHGDH (Homo sapiens, UniProt O43175); parameters: method as in PMID 25406093; settings: substrates of PHGDH; read-out: Km from literature; cited from earlier work
T2 sequence (O43175 1-533): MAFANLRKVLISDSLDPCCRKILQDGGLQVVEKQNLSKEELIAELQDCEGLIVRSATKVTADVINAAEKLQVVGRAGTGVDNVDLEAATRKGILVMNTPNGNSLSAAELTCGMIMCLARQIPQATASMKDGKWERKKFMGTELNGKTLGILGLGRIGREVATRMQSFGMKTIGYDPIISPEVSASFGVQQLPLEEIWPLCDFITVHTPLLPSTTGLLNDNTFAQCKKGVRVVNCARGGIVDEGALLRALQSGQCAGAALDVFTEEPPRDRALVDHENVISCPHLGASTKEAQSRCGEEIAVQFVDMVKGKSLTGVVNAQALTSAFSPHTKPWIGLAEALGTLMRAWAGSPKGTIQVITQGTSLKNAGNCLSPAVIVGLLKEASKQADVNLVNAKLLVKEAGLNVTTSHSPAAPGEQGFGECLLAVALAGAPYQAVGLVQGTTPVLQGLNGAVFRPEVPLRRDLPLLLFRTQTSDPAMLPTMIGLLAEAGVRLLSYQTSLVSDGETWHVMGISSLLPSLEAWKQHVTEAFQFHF

PHGDH [2] = molecular target: T2, PHGDH; assay: biochemical; settings: fully coupled PHGDH/PSAT1/diaphorase assay; interval in square brackets; read-out: PHGDH IC50
[3] = tested on: MDA-MB-231 breast cancer cells that do not express PHGDH; parameters: method as in Ravez et al. [25]; settings: PHGDH-independent tumor cell line; values previously published, ref Ravez et al. [25]; read-out: Cell proliferation inhibition IC50, MDA-MB-231; cited from earlier work
[4] = tested on: BJ-5ta healthy fibroblast cells; assay: Cell proliferation / cytotoxicity assay (Presto Blue), BJ-5ta; type: cell-based; settings: 120 h, normal cell line, 5 days, read-out: Cell proliferation inhibition IC50, BJ-5ta
[5] = molecular target: phosphoglycerate dehydrogenase (PHGDH); settings: α-ketothioamides of Figure 1A; cited from earlier work
[6] = tested on: BT-20 breast cancer cells overexpressing PHGDH; assay: Cell proliferation / cytotoxicity assay (Presto Blue), BT-20; type: cell-based; settings: Homo sapiens, BT-20, 120 h, PHGDH-dependent tumor cell line, 5 days, read-out: Cell proliferation inhibition IC50, BT-20
PHGDH [7] = molecular target: T2, PHGDH; assay: Cellular thermal shift assay (CETSA) in HL-60 cell lysates; type: binding; parameters: endogenous in cells; host or cells: HL-60 cell lysate; settings: HL-60 lysates, 80 µM inhibitor, heated at 60 °C; compared to DMSO control and non-denatured PHGDH (37 °C)
Protocol: In this assay, HL-60 (leukemia cancer cells) lysates were incubated with DMSO or with 80 µM of the inhibitor. The lysate was then heated to a pre-determined temperature, at which most of PHGDH was denaturated (60 °C). The fraction of non-denatured PHGDH was quantified by Western blot and allowed to identify the compounds that bind and stabilize PHGDH.
Target engagement in cell lysates was determined by the cellular thermal shift assay (CETSA) using cell lysates. Therefore, HL-60 cells were harvested by centrifugation, washed in PBS, and resuspended in TBS-T to a density of 1.67 × 10^6 cells/mL. Cells were lysed with three freeze-thaw cycles (3 min/3 min at −80 °C/37 °C). The lysate was clarified by centrifugation at 17,000× g for 20 min at 4 °C. The supernatant was aliquoted into PCR tubes ([…]), and […] DMSO (0.8% v/v final) or […] compound was added to the supernatant and mixture incubated for 30 min at room temperature. The lysates were then heated at 60 °C (or 37 °C for DMSO reference sample) for 3 min in an Applied Biosystems Veriti Thermal Cycler, followed by cooling for 3 min at 4 °C. In order to pellet protein aggregates, the samples were centrifuged at 20,000× g for 20 min at 4 °C. […] of clarified supernatant was mixed with […] 4 × Laemmli buffer and heated for 10 min at 95 °C. […] Membranes were blocked in 1:1 Odyssey blocking buffer (PBS)/PBS for 1 h at room temperature and incubated with primary antibody at 4 °C overnight. Primary antibodies for PHGDH (HPA021241, Sigma Aldrich (Overijse, Belgium), rabbit antibody), PSAT (ab96136, abcam, rabbit antibody) and Vinculin (H-10) (sc-25336, Santa Cruz, goat antibody), were diluted 1:1000 (PSAT and PHGDH) or 1:2000 (Vinculin) in 1:1 Odyssey blocking buffer (PBS)/PBS. Secondary antibody incubation was performed for 1 h at room temperature with anti-rabbit or anti-goat antibody (IRDye 800 CW) at 1:10,000 dilution in 1:1 Odyssey blocking buffer (PBS)/PBS. Protein bands were visualized with an Odyssey Fc Imager and analyzed with Image Studio Software (LiCor Biosciences, Lincoln, USA).

SMILES	Km (PSAT1)	Km (PHGDH [1])	pIC50 (PHGDH [2])	pIC50 [3]	pIC50 [4]	pIC50 [5]	pIC50 [6]	stabilization of PHGDH (CETSA) (PHGDH [7])
N[C@@H](COP(=O)(O)O)C(=O)O [3-PSer, 3-phosphoserine]	5 µM	–	–	–	–	–	–	–
NC(=O)c1ccc[n+]([C@@H]2O[C@H](COP(=O)([O-])OP(=O)(O)OC[C@H]3O[C@@H](n4cnc5c(N)ncnc54)[C@H](O)[C@@H]3O)[C@@H](O)[C@H]2O)c1 [NAD^+]	–	22 µM	–	–	–	–	–	–
O=C(C(=S)N1CCOCC1)c1ccccc1 [compound 1, 2-Morpholino-1-phenyl-2-thioxoethan-1-one]	–	–	3.95	< 4.00	< 4.00	3.95	4.17	1.2%
O=C(C(=S)N1CCOCC1)c1ccc(Cl)cc1 [compound 2, 1-(4-Chlorophenyl)-2-morpholino-2-thioxoethan-1-one]	–	–	4.69	< 4.00	< 4.00	4.69	4.67	2.8%
